Measured values taken from US5294603A, “Pharmaceutical compositions containing didemnins” (The Board of Trustees of The University of Illinois, priority 1992, dated 1994).
Converted amounts (≈) assume the structure as drawn. Read-outs that look alike come from different tables or passages of the source. Numbered stars: 1 amine (or outer) side, 2 acyl side, 3 side chain; on linkers, the order of the positions; unused ones are H or OH. Bridge positions count the residues as written; N and C are the ends. Square brackets hold non-standard residues; d marks the D form. Peptide text beside a SMILES is read from it. * marks the point of attachment. X7 = CC[C@H](C)[C@@H](N[*:1])[C@@H](O)CC(=O)O[C@H](C(=NO)[C@H](C)C(=O)[*:2])C(C)C; X1 = CC[C@H](C)[C@@H](N[*:1])[C@@H](O)CC(=O)O[C@H](C(=O)[C@H](C)C(=O)[*:2])C(C)C; X3 = CC[C@H](C)[C@H](N[*:1])[C@@H](O)CC(=O)O[C@H](C(=O)[C@H](C)C(=O)[*:2])C(C)C; NMeY = CN[C@@H](Cc1ccc(O)cc1)C(=O)O; aThr = C[C@H](O)[C@H](N)C(=O)O; dNMeL = CN[C@H](CC(C)C)C(=O)O; Isobutyryl = CC(C)C(=O)*; Aze = O=C(O)[C@@H]1CCN1; Pyruvoyl = CC(=O)C(=O)*; Propionyl = CCC(=O)*

Legend:
[1] = test system: BHK = Baby hamster kidney cells
[2] = test system: L1210
[3] = test system: Visna virus (VIV); format: cell-based; design: key to % Protection / VIV Protection: I, indeterminate
[4] = test system: Nb2 cells, rat T-cell node lymphoma; experiment: Competitive binding with [3H]didemnin B to Nb2 cells; settings: 3 h at 37° C.
Description: The immunosuppressive assay was performed by measuring competitive binding of tested compounds with [^3 H]didemnin B to Nb2 cells, rat T-cell node lymphoma. See, Russell, D. H., et al., J. Immunology, 1987, 138, 276-284.
^a Competing didemnins incubated with approximately 25 ng of [^3

[5] = test system: cells of the VIV assay (not named)
[6] = test system: L1210 murine leukemia cells; settings: Table 9
[7] = test system: DNA synthesis in Nb2 node lymphoma cells; experiment: Inhibition of ongoing DNA synthesis in prolactin-stimulated Nb2 cells; format: cell-based, rat; settings: Nb2 cells stimulated with prolactin for 24 h
Description: Also inhibitions of protein and DNA synthesis of several compounds were measured using Nb2 node lymphoma cells which were stimulated by a treatment of cells with prolactin. (ibid.)
^a Nb2 cells were stimulated with prolactin for 24 h, then exposed to
^b 50% Inhibitory concentration, calculated with linear regression

[8] = test system: L1210; experiment: L1210 cytotoxicity, inhibition at fixed doses (Table 10); format: cell-based, murine
[9] = test system: L1210 cells
[10] = test system: CV-1 monkey kidney cells

CCC(=O)N(C)[C@H](CC(C)C)C(=O)N[C@@H]1C(=O)N[C@H]([C@@H](C)CC)[C@@H](O)CC(=O)O[C@@H](C(C)C)C(=O)[C@H](C)C(=O)N[C@@H](CC(C)C)C(=O)N2CCC[C@H]2C(=O)N(C)[C@@H](Cc2ccc(OC)cc2)C(=O)O[C@@H]1C [(N-Propionyl)Didemnin A (98), N-propionyl-didemnin A] (Propionyl-[dNMeL]T[X1]LP[NMeY](Me); ester 2-C)
BHK [1]: 0, PT
cytotoxicity (result in words) ([2]; Table 1 footnote and text): retained the cytotoxicity of didemnin B
Cytotoxicity percent L1210 inhibition ([2]; dose 5 ng/mL): 93%
Cytotoxicity percent L1210 inhibition ([2]; dose 12.5 ng/mL): 95%
Cytotoxicity percent L1210 inhibition ([2]; dose 25 ng/mL): 95%
VIV Protection [3]: I
Inhibition of [3H]didemnin B binding (%) ([4]; 0.001 μg/mL): 3%
Inhibition of [3H]didemnin B binding (%) ([4]; 0.01 μg/mL): 2%
Inhibition of [3H]didemnin B binding (%) ([4]; 0.1 μg/mL): 40%
Inhibition of [3H]didemnin B binding (%) ([4]; 1 μg/mL): 72%
VIV Toxicity [5]: 92
Cytotoxicity L1210 IC50 [6]: 0.3 ng/mL

Cc1cn([C@H]2C[C@H](N=[N+]=[N-])[C@@H](CO)O2)c(=O)[nH]c1=O [AZT, reference compound]
% Cytotoxicity ([5]; 1 µM): 5
% Cytotoxicity ([5]; 3 µM): 7
% Cytotoxicity ([5]; 10 µM): 11
% Cytotoxicity ([5]; 30 µM): 14

CC[C@H](C)[C@H]1NC(=O)[C@@H](NC(=O)[C@@H](CC(C)C)NC)[C@@H](C)OC(=O)[C@H](Cc2ccc(OC)cc2)N(C)C(=O)[C@@H]2CCCN2C(=O)[C@H](CC(C)C)NC(=O)[C@@H](C)C(=O)[C@H](C(C)C)OC(=O)C[C@@H]1O [Didemnin A (1), Didemnin A, reference compound] (H-[dNMeL]T[X1]LP[NMeY](Me); ester 2-C)
Cytotoxicity percent L1210 inhibition ([2]; dose 5 ng/mL): 0%
Cytotoxicity percent L1210 inhibition ([2]; dose 12.5 ng/mL): 19%
Cytotoxicity percent L1210 inhibition ([2]; dose 25 ng/mL): 25%
IC50 DNA [7]: 2000 ng/mL (≈ 2120 nM)
VIV Protection [3]: < 0
Inhibition of [3H]didemnin B binding (%) ([4]; 0.001 μg/mL): 3%
Inhibition of [3H]didemnin B binding (%) ([4]; 0.01 μg/mL): 8%
Inhibition of [3H]didemnin B binding (%) ([4]; 0.1 μg/mL): 20%
Inhibition of [3H]didemnin B binding (%) ([4]; 1 μg/mL): 35%
Inhibition (%) ([8]; dose 25 ng/mL, tested 4/22/1990): 80%
Inhibition (%) ([8]; dose 250 ng/mL, tested 4/22/1990): 100%
Cytotoxicity L1210 IC50 [6]: 30 ng/mL

CC[C@H](C)[C@H]1NC(=O)[C@@H](NC(=O)[C@@H](CC(C)C)N(C)C(=O)[C@@H]2CCCN2C(=O)C(C)O)[C@@H](C)OC(=O)[C@H](Cc2ccc(OC)cc2)N(C)C(=O)[C@@H]2CCCN2C(=O)[C@H](CC(C)C)NC(=O)[C@@H](C)C(=O)[C@H](C(C)C)OC(=O)C[C@@H]1O (some centres unmarked) [Didemnin B (17), Didemnin B, reference compound]
Cytotoxicity percent L1210 inhibition ([2]; dose 5 ng/mL): 93%
Cytotoxicity percent L1210 inhibition ([2]; dose 12.5 ng/mL): 95%
Cytotoxicity percent L1210 inhibition ([2]; dose 25 ng/mL): 95%
IC50 DNA [7]: 90 ng/mL (≈ 80.9 nM)
Inhibition of [3H]didemnin B binding (%) ([4]; 0.001 μg/mL): 3%
Inhibition of [3H]didemnin B binding (%) ([4]; 0.01 μg/mL): 7%
Inhibition of [3H]didemnin B binding (%) ([4]; 0.1 μg/mL): 59%
Inhibition of [3H]didemnin B binding (%) ([4]; 1 μg/mL): 77%
Inhibition (%) ([8]; dose 25 ng/mL, tested 4/18/1991): 99%
Inhibition (%) ([8]; dose 250 ng/mL, tested 4/18/1991): 99%
Cytotoxicity L1210 IC50 [6]: 0.5 ng/mL
IC50 [9]: 0.5 ng/mL (≈ 0.449 nM)

CC[C@H](C)[C@H]1NC(=O)[C@@H](NC(=O)[C@@H](CC(C)C)N(C)C(=O)[C@@H](N)CC(C)C)[C@@H](C)OC(=O)[C@H](Cc2ccc(OC)cc2)N(C)C(=O)[C@@H]2CCCN2C(=O)[C@H](CC(C)C)NC(=O)[C@@H](C)C(=O)[C@H](C(C)C)OC(=O)C[C@@H]1O [N-(L-Leu)Didemnin A (99), N-(L-Leu)didemnin A] (H-L[dNMeL]T[X1]LP[NMeY](Me); ester 3-C)
BHK [1]: 0, PT
Cytotoxicity L1210 IC50 [6]: 4 ng/mL

CC[C@H](C)[C@H]1NC(=O)[C@@H](NC(=O)[C@@H](CC(C)C)N(C)C(=O)[C@@H]2CCCN2)[C@@H](C)OC(=O)[C@H](Cc2ccc(OC)cc2)N(C)C(=O)[C@@H]2CCCN2C(=O)[C@H](CC(C)C)NC(=O)[C@@H](C)C(=O)[C@H](C(C)C)OC(=O)C[C@@H]1O [N-(L-Pro)Didemnin A (100), N-(L-Prolyl) didemnin A] (H-P[dNMeL]T[X1]LP[NMeY](Me); ester 3-C)
BHK [1]: 0, PT
VIV Protection [3]: < 0
Cytotoxicity L1210 IC50 [6]: 4 ng/mL

CC[C@H](C)[C@@H]1NC(=O)[C@@H](NC(=O)[C@@H](CC(C)C)N(C)C(C)=O)[C@H](C)OC(=O)[C@H](Cc2ccc(OC)cc2)N(C)C(=O)[C@@H]2CCCN2C(=O)[C@H](CC(C)C)NC(=O)[C@@H](C)C(=O)[C@H](C(C)C)OC(=O)C[C@@H]1O [N-Acetyldidemnin A (54), N-Acetyl didemnin A] (Ac-[dNMeL][aThr][X3]LP[NMeY](Me); ester 2-C)
Cytotoxicity percent L1210 inhibition ([2]; dose 5 ng/mL): 89%
Cytotoxicity percent L1210 inhibition ([2]; dose 12.5 ng/mL): 93%
Cytotoxicity percent L1210 inhibition ([2]; dose 25 ng/mL): 94%
IC50 DNA [7]: 70 ng/mL (≈ 71 nM)
VIV Protection [3]: I
Inhibition of [3H]didemnin B binding (%) ([4]; 0.001 μg/mL): 2%
Inhibition of [3H]didemnin B binding (%) ([4]; 0.01 μg/mL): 12%
Inhibition of [3H]didemnin B binding (%) ([4]; 0.1 μg/mL): 72%
Inhibition of [3H]didemnin B binding (%) ([4]; 1 μg/mL): 80%
VIV Toxicity [5]: 94
Cytotoxicity L1210 IC50 [6]: 0.3 ng/mL

COc1ccc(C[C@H]2C(=O)O[C@H](C)[C@H](NC(=O)C(CC(C)C)N(C)C(=O)[C@@H]3CCCN3C(=O)[C@H](C)O)C(=O)N[C@H](C(C)C)[C@@H](O)CC(=O)O[C@@H](C(C)C)C(=O)[C@H](C)C(=O)N[C@@H](CC(C)C)C(=O)N3CCC[C@H]3C(=O)N2C)cc1 (some centres unmarked) [Nordidemnin B (22), Nordidemnin B]
BHK [1]: 0, PT
VIV Protection [3]: -25
Cytotoxicity L1210 IC50 [6]: 1 ng/mL

CC[C@H](C)[C@H]1NC(=O)[C@@H](NC(=O)[C@@H](CC(C)C)NC)[C@@H](C)OC(=O)[C@H](Cc2ccc(OC)cc2)N(C)C(=O)[C@@H]2CCCN2C(=O)[C@H](CC(C)C)NC(=O)[C@@H](C)[C@@H](O)[C@H](C(C)C)OC(=O)C[C@@H]1OC(C)=O [O-Acetyl-[H2-(2S,3R,4S)Hip^2]didemnin A]
CV-1 [10]: 0
Inhibition of [3H]didemnin B binding (%) ([4]; 0.001 μg/mL): 0%
Inhibition of [3H]didemnin B binding (%) ([4]; 0.01 μg/mL): 0%
Inhibition of [3H]didemnin B binding (%) ([4]; 0.1 μg/mL): 2%
Inhibition of [3H]didemnin B binding (%) ([4]; 1 μg/mL): 19%
Cytotoxicity L1210 IC50 [6]: 1000 ng/mL

CC[C@H](C)[C@H]1NC(=O)[C@@H](NC(=O)[C@@H](CC(C)C)NC)[C@@H](C)OC(=O)[C@H](Cc2ccc(OC)cc2)N(C)C(=O)[C@@H]2CCCN2C(=O)[C@H](CC(C)C)NC(=O)[C@@H](C)C(=O)[C@H](C(C)C)OC(=O)C[C@@H]1OC(C)=O [O-Acetyldidemnin A (114), O-Acetyldidemnin A]
BHK [1]: 0, PT
IC50 DNA [7]: 270,000 ng/mL
Inhibition of [3H]didemnin B binding (%) ([4]; 0.001 μg/mL): 1%
Inhibition of [3H]didemnin B binding (%) ([4]; 0.01 μg/mL): 4%
Inhibition of [3H]didemnin B binding (%) ([4]; 0.1 μg/mL): 15%
Inhibition of [3H]didemnin B binding (%) ([4]; 1 μg/mL): 10%
Cytotoxicity L1210 IC50 [6]: 300 ng/mL

CC[C@H](C)[C@H]1NC(=O)[C@@H](NC(=O)[C@@H](CC(C)C)N(C)C(=O)[C@@H]2CCN2C(=O)C(C)=O)[C@@H](C)OC(=O)[C@H](Cc2ccc(OC)cc2)N(C)C(=O)[C@@H]2CCCN2C(=O)[C@H](CC(C)C)NC(=O)[C@@H](C)C(=O)[C@H](C(C)C)OC(=O)C[C@@H]1O [Pyruv-Azt-DA, Pyruv-Azt Didemnin A] (Pyruvoyl-[Aze][dNMeL]T[X1]LP[NMeY](Me); ester 3-C)
% Protection [3]: I
% Cytotoxicity [5]: 77
IC50 [9]: 0.6 ng/mL (≈ 0.547 nM)

CC[C@H](C)[C@H]1NC(=O)[C@@H](NC(=O)[C@@H](CC(C)C)NC)[C@@H](C)OC(=O)[C@H](Cc2ccc(OC)cc2)N(C)C(=O)[C@@H]2CCCN2C(=O)[C@H](CC(C)C)NC(=O)[C@@H](C)C(=NO)[C@H](C(C)C)OC(=O)C[C@@H]1O [[HydroxyiminoHip^2]-Didemnin A (65), [HydroxyiminoHip^2]didemnin A] (H-[dNMeL]T[X7]LP[NMeY](Me); ester 2-C)
CV-1 [10]: 0
Cytotoxicity L1210 IC50 [6]: 20 ng/mL

CC[C@H](C)[C@H]1NC(=O)[C@@H](NC(=O)[C@@H](CC(C)C)N(C)C(=O)[C@H]2CCCN2C(=O)C(C)C)[C@@H](C)OC(=O)[C@H](Cc2ccc(OC)cc2)N(C)C(=O)[C@@H]2CCCN2C(=O)[C@H](CC(C)C)NC(=O)[C@@H](C)C(=O)[C@H](C(C)C)OC(=O)C[C@@H]1O [[Isobutyryl^9 -D-Pro^8]didemnin B] (Isobutyryl-[dP][dNMeL]T[X1]LP[NMeY](Me); ester 3-C)
BHK [1]: 0, PT
Inhibition of [3H]didemnin B binding (%) ([4]; 0.001 μg/mL): 0%
Inhibition of [3H]didemnin B binding (%) ([4]; 0.01 μg/mL): 0%
Inhibition of [3H]didemnin B binding (%) ([4]; 0.1 μg/mL): 25%
Inhibition of [3H]didemnin B binding (%) ([4]; 1 μg/mL): 69%
Cytotoxicity L1210 IC50 [6]: 10 ng/mL

CCC(=O)N1CCC[C@H]1C(=O)N(C)[C@H](CC(C)C)C(=O)N[C@@H]1C(=O)N[C@H]([C@@H](C)CC)[C@@H](O)CC(=O)O[C@@H](C(C)C)C(=O)[C@H](C)C(=O)N[C@@H](CC(C)C)C(=O)N2CCC[C@H]2C(=O)N(C)[C@@H](Cc2ccc(OC)cc2)C(=O)O[C@@H]1C [[Propionyl^9] Didemnin B (104), [Propionyl^9]didemnin B] (Propionyl-P[dNMeL]T[X1]LP[NMeY](Me); ester 3-C)
BHK [1]: 0, PT
VIV Protection [3]: -113
Cytotoxicity L1210 IC50 [6]: 0.2 ng/mL
